Experimental data published in PubChem BioAssay (NCI).
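In this assay, cells in 96-well plates receive the compound at five concentrations for 48 hours. Endpoints are linearly interpolated between the surrounding concentrations. TGI is the concentration that stops growth completely.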

Experiments:
Experiment in all cases: DTP human tumour cell line panel, 48 h
T-47D breast = system: T-47D breast
MCF7 breast = system: MCF7 breast
NCI/ADR-RES ovarian = system: NCI/ADR-RES ovarian
OVCAR-3 ovarian = system: OVCAR-3 ovarian
SF-539 CNS = system: SF-539 CNS
LOX IMVI melanoma = system: LOX IMVI melanoma
HCC-2998 colon = system: HCC-2998 colon
NCI-H23 lung = system: NCI-H23 lung
SK-MEL-28 melanoma = system: SK-MEL-28 melanoma
SR leukemia = system: SR leukemia
COLO 205 colon = system: COLO 205 colon
NCI-H522 lung = system: NCI-H522 lung
RXF 393 renal = system: RXF 393 renal
HT29 colon = system: HT29 colon
SK-MEL-5 melanoma = system: SK-MEL-5 melanoma
SNB-19 CNS = system: SNB-19 CNS
M14 melanoma = system: M14 melanoma
A498 renal = system: A498 renal
UACC-62 melanoma = system: UACC-62 melanoma
MALME-3M melanoma = system: MALME-3M melanoma
HOP-62 NSCLC = system: HOP-62 NSCLC
HS 578T breast = system: HS 578T breast
MDA-MB-231 breast = system: MDA-MB-231 breast
A549 NSCLC = system: A549 NSCLC
ACHN renal = system: ACHN renal
MDA-MB-435 = system: MDA-MB-435
MDA-N = system: MDA-N
SF-295 CNS = system: SF-295 CNS
CAKI-1 renal = system: CAKI-1 renal
BT-549 breast = system: BT-549 breast
NCI-H226 lung = system: NCI-H226 lung
HL-60(TB) leukemia = system: HL-60(TB) leukemia
786-0 renal = system: 786-0 renal
KM12 colon = system: KM12 colon
HCT-116 colon = system: HCT-116 colon
MOLT-4 leukemia = system: MOLT-4 leukemia
SN12C renal = system: SN12C renal
SK-OV-3 ovarian = system: SK-OV-3 ovarian
IGROV1 ovarian = system: IGROV1 ovarian
PC-3 prostate = system: PC-3 prostate
NCI-H460 lung = system: NCI-H460 lung
CCRF-CEM leukemia = system: CCRF-CEM leukemia
UACC-257 melanoma = system: UACC-257 melanoma
TK-10 renal = system: TK-10 renal
OVCAR-4 ovarian = system: OVCAR-4 ovarian
SW-620 colon = system: SW-620 colon
K-562 leukemia = system: K-562 leukemia
UO-31 renal = system: UO-31 renal
DU-145 prostate = system: DU-145 prostate
EKVX NSCLC = system: EKVX NSCLC
SF-268 CNS = system: SF-268 CNS
HCT-15 colon = system: HCT-15 colon
OVCAR-5 ovarian = system: OVCAR-5 ovarian
RPMI-8226 leukemia = system: RPMI-8226 leukemia
OVCAR-8 ovarian = system: OVCAR-8 ovarian
SK-MEL-2 melanoma = system: SK-MEL-2 melanoma
SNB-75 CNS = system: SNB-75 CNS
U251 CNS = system: U251 CNS
HOP-92 NSCLC = system: HOP-92 NSCLC

Work on COC(=O)C1CC2C=CC1N(C(=O)OCc1ccccc1)C2 (stereo unspecified) yielded a TGI (T-47D breast) of over 100 µM, a TGI (MCF7 breast) of over 100 µM and a TGI (NCI/ADR-RES ovarian) of over 100 µM. The TGI (OVCAR-3 ovarian) was over 100 µM, the TGI (SF-539 CNS) was over 100 µM and the TGI (LOX IMVI melanoma) was over 100 µM. For the same molecule, the TGI (HCC-2998 colon) was over 100 µM, the TGI (NCI-H23 lung) was over 100 µM and the TGI (SK-MEL-28 melanoma) was over 100 µM. For the same molecule, the TGI (SR leukemia) was over 100 µM, the TGI (COLO 205 colon) was over 100 µM and the TGI (NCI-H522 lung) was 43.5 µM. For the same molecule, the TGI (RXF 393 renal) was over 100 µM, the TGI (HT29 colon) was over 100 µM and the TGI (SK-MEL-5 melanoma) was over 100 µM. It also gave a TGI (SNB-19 CNS) of over 100 µM, a TGI (M14 melanoma) of over 100 µM and a TGI (A498 renal) of over 100 µM. It also gave a TGI (UACC-62 melanoma) of over 100 µM, a TGI (MALME-3M melanoma) of over 100 µM and a TGI (HOP-62 NSCLC) of over 100 µM. The TGI (HS 578T breast) was over 100 µM, the TGI (MDA-MB-231 breast) was over 100 µM and the TGI (A549 NSCLC) was over 100 µM. For the same molecule, the TGI (ACHN renal) was over 100 µM, the TGI (MDA-MB-435) was over 100 µM and the TGI (MDA-N) was over 100 µM. The TGI (SF-295 CNS) was over 100 µM, the TGI (CAKI-1 renal) was over 100 µM and the TGI (BT-549 breast) was over 100 µM. For the same molecule, the TGI (NCI-H226 lung) was over 100 µM, the TGI (HL-60(TB) leukemia) was over 100 µM and the TGI (786-0 renal) was over 100 µM. The TGI (KM12 colon) was over 100 µM, the TGI (HCT-116 colon) was over 100 µM and the TGI (MOLT-4 leukemia) was over 100 µM. For the same molecule, the TGI (SN12C renal) was over 100 µM, the TGI (SK-OV-3 ovarian) was over 100 µM and the TGI (IGROV1 ovarian) was over 100 µM. It also gave a TGI (PC-3 prostate) of over 100 µM, a TGI (NCI-H460 lung) of over 100 µM and a TGI (CCRF-CEM leukemia) of over 100 µM. For the same molecule, the TGI (UACC-257 melanoma) was over 100 µM, the TGI (TK-10 renal) was over 100 µM and the TGI (OVCAR-4 ovarian) was over 100 µM. For the same molecule, the TGI (SW-620 colon) was over 100 µM, the TGI (K-562 leukemia) was over 100 µM and the TGI (UO-31 renal) was over 100 µM. The TGI (DU-145 prostate) was over 100 µM, the TGI (EKVX NSCLC) was over 100 µM and the TGI (SF-268 CNS) was over 100 µM. The TGI (HCT-15 colon) was over 100 µM, the TGI (OVCAR-5 ovarian) was over 100 µM and the TGI (RPMI-8226 leukemia) was over 100 µM. For the same molecule, the TGI (OVCAR-8 ovarian) was over 100 µM, the TGI (SK-MEL-2 melanoma) was over 100 µM and the TGI (SNB-75 CNS) was over 100 µM. For the same molecule, the TGI (U251 CNS) was over 100 µM.
CCCCCCc1nn2c(-c3ccncc3)nnc2s1 gave a TGI (T-47D breast) of over 10 µM, a TGI (MCF7 breast) of over 10 µM and a TGI (NCI/ADR-RES ovarian) of over 10 µM. The TGI (OVCAR-3 ovarian) was over 10 µM, the TGI (SF-539 CNS) was over 10 µM and the TGI (LOX IMVI melanoma) was over 10 µM. For the same molecule, the TGI (HCC-2998 colon) was over 10 µM, the TGI (NCI-H23 lung) was over 10 µM and the TGI (SK-MEL-28 melanoma) was over 10 µM. For the same molecule, the TGI (SR leukemia) was over 10 µM, the TGI (COLO 205 colon) was over 10 µM and the TGI (NCI-H522 lung) was over 10 µM. For the same molecule, the TGI (HOP-92 NSCLC) was over 10 µM, the TGI (RXF 393 renal) was over 10 µM and the TGI (HT29 colon) was over 10 µM. It also gave a TGI (SK-MEL-5 melanoma) of over 10 µM, a TGI (SNB-19 CNS) of over 10 µM and a TGI (M14 melanoma) of over 10 µM. For the same molecule, the TGI (A498 renal) was over 10 µM, the TGI (UACC-62 melanoma) was over 10 µM and the TGI (MALME-3M melanoma) was over 10 µM. It also gave a TGI (HOP-62 NSCLC) of over 10 µM, a TGI (HS 578T breast) of over 10 µM and a TGI (MDA-MB-231 breast) of over 10 µM. It also gave a TGI (A549 NSCLC) of over 10 µM, a TGI (ACHN renal) of over 10 µM and a TGI (MDA-MB-435) of over 10 µM. The TGI (MDA-N) was over 10 µM, the TGI (SF-295 CNS) was over 10 µM and the TGI (CAKI-1 renal) was over 10 µM. It also gave a TGI (BT-549 breast) of over 10 µM, a TGI (NCI-H226 lung) of over 10 µM and a TGI (HL-60(TB) leukemia) of over 10 µM. The TGI (786-0 renal) was over 10 µM, the TGI (KM12 colon) was over 10 µM and the TGI (HCT-116 colon) was over 10 µM. It also gave a TGI (MOLT-4 leukemia) of over 10 µM, a TGI (SN12C renal) of over 10 µM and a TGI (SK-OV-3 ovarian) of over 10 µM. For the same molecule, the TGI (IGROV1 ovarian) was over 10 µM, the TGI (PC-3 prostate) was over 10 µM and the TGI (NCI-H460 lung) was over 10 µM. It also gave a TGI (CCRF-CEM leukemia) of over 10 µM, a TGI (UACC-257 melanoma) of over 10 µM and a TGI (TK-10 renal) of over 10 µM. For the same molecule, the TGI (OVCAR-4 ovarian) was over 10 µM, the TGI (SW-620 colon) was over 10 µM and the TGI (K-562 leukemia) was over 10 µM. It also gave a TGI (UO-31 renal) of 2.89 µM, a TGI (DU-145 prostate) of over 10 µM and a TGI (EKVX NSCLC) of over 10 µM. The TGI (SF-268 CNS) was over 10 µM, the TGI (HCT-15 colon) was over 10 µM and the TGI (OVCAR-5 ovarian) was over 10 µM. The TGI (RPMI-8226 leukemia) was over 10 µM, the TGI (OVCAR-8 ovarian) was over 10 µM and the TGI (SK-MEL-2 melanoma) was over 10 µM. The TGI (U251 CNS) was over 10 µM.
